Results taken from patent US20240293551A1, “USE OF ST-TYPE LIPID COMPOUNDS IN PREPARATION OF NUCLEIC ACID DELIVERY REAGENT AND RELATED PRODUCT” (INSTITUTE OF BASIC MEDICAL SCIENCES CHINESE ACADEMY OF …, priority 2021, published 2024).

System: PGY-sRNA-26
Assay: In vivo delivery study of lipid-nucleic acid mixture (oral gavage, RT-qPCR of PGY-sRNA-26 in tissues)
Design: species or system mouse
Settings: C57BL/6 mice, gavage, 100 μg lipid: 10 nmol PGY-sRNA-26, 12 hours; for delivery efficacy over each tissue and blood tested (broad-spectrum delivery): all tissues and blood tested; for oral delivery of single-stranded sRNA nucleic acids into mouse intestinal tissue: intestine
How it was run: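 C57BL/6 male mice (~6 weeks, 20-24 g), fasted 12 h, were gavaged with 10 nmol 3′-methylated PGY-sRNA-26 mixed with 100 μg lipid (heated 90° C. 15 min), versus saline or free sRNA (n=4 each). After 12 h, blood and tissues were Trizol-extracted; sRNA quantified by stem-loop RT-qPCR relative to U6.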

Compound | delivery efficacy over each tissue and blood tested (broad-spectrum delivery) | oral delivery of single-stranded sRNA nucleic acids into mouse blood | oral delivery of single-stranded sRNA nucleic acids into mouse brain tissue | oral delivery of single-stranded sRNA nucleic acids into mouse femur | oral delivery of single-stranded sRNA nucleic acids into mouse heart tissue | oral delivery of single-stranded sRNA nucleic acids into mouse intestinal tissue | oral delivery of single-stranded sRNA nucleic acids into mouse kidney tissue | oral delivery of single-stranded sRNA nucleic acids into mouse liver tissue | oral delivery of single-stranded sRNA nucleic acids into mouse lung tissue | oral delivery of single-stranded sRNA nucleic acids into mouse spleen tissue | oral delivery of single-stranded sRNA nucleic acids into mouse stomach tissue
CCCCC(=O)O[C@H]1CC[C@H]2[C@@H]3CCc4cc(O)ccc4[C@H]3CC[C@]12C [Lipid 556] | exhibited the best delivery efficacy | can effectively orally deliver | can effectively orally deliver | can effectively orally deliver | can effectively orally deliver | can effectively orally deliver | can effectively orally deliver | can effectively orally deliver | can effectively orally deliver | can effectively orally deliver | can effectively orally deliver
C=C1/C(=C\C=C2/CCC[C@]3(C)[C@@H]([C@H](C)/C=C/[C@H](C)C(C)(C)O)CC[C@@H]23)C[C@@H](O)C[C@@H]1O [Lipid 570] | exhibited the best delivery efficacy | can effectively orally deliver | can effectively orally deliver | can effectively orally deliver | can effectively orally deliver | can effectively orally deliver | can effectively orally deliver | can effectively orally deliver | can effectively orally deliver | can effectively orally deliver | can effectively orally deliver
CC(C)CCC[C@@H](C)[C@H]1CC[C@H]2[C@@H]3CC[C@H]4CCCC[C@]4(C)[C@H]3CC[C@]12C [Lipid 653, 5α-cholestane (5R,8R,9S,10S,13R,14S,17R)-10,13-dimethyl-17-[(2R)-6-methylheptan-2-yl]-2,3,4,5,6,7,8,9,11,12,14,15,16,17-tetradecahydro-1H-cyclopenta[a]phenanthrene] | exhibited the best delivery efficacy | can effectively orally deliver | can effectively orally deliver | can effectively orally deliver | can effectively orally deliver | can effectively orally deliver | can effectively orally deliver | can effectively orally deliver | can effectively orally deliver | can effectively orally deliver | can effectively orally deliver
C[C@]12CC[C@H]3[C@@H](CCC4=CC(=O)CC[C@@]43CO)[C@@H]1CCC2=O [Lipid 567, 19-hydroxy-androstane-4-ene-3,17-dione (8R,9S,10S,13S,14S)-10-(hydroxymethyl)-13-methyl-2,6,7,8,9,11,12,14,15,16-decahydro-1H-cyclopenta[a]phenanthrene-3,17-dione] | exhibited the best delivery efficacy | can effectively orally deliver | can effectively orally deliver | can effectively orally deliver | can effectively orally deliver | can effectively orally deliver | can effectively orally deliver | can effectively orally deliver | can effectively orally deliver | can effectively orally deliver | can effectively orally deliver
C#C[C@]1(O)CC[C@H]2[C@@H]3CCc4cc(O)ccc4[C@H]3CC[C@@]21C [Lipid 591] |  |  | can effectively orally deliver | can effectively orally deliver | can effectively orally deliver | can effectively orally deliver | can effectively orally deliver |  | can effectively orally deliver | can effectively orally deliver | can effectively orally deliver
C[C@]12CCC(=O)C=C1CC[C@@H]1[C@@H]2CC[C@@]2(C)[C@H]1CC[C@]2(C)O [Lipid 546] | exhibited the best delivery efficacy | can effectively orally deliver | can effectively orally deliver | can effectively orally deliver | can effectively orally deliver | can effectively orally deliver | can effectively orally deliver | can effectively orally deliver | can effectively orally deliver | can effectively orally deliver | can effectively orally deliver
C[C@@H]1CC[C@@]2(OC1)O[C@H]1C[C@H]3[C@@H]4CC=C5C[C@@H](O)CC[C@]5(C)[C@H]4CC[C@]3(C)[C@H]1[C@@H]2C [Lipid 589] | exhibited the best delivery efficacy | can effectively orally deliver | can effectively orally deliver | can effectively orally deliver | can effectively orally deliver | can effectively orally deliver | can effectively orally deliver | can effectively orally deliver | can effectively orally deliver | can effectively orally deliver | can effectively orally deliver
